In US10072026B2, “Crystalline form of 3-((1R,3s,5S)-3-((7-((5-methyl-1H-pyrazol-3-yl)amino)-1,6-naphthyridin-5-yl)amino)-8-azabicyclo[3.2.1]octan-8-yl)propanenitrile” (priority 2015, dated 2018):

Columns and labels:
[1] = system: IL-4 induced STAT6 phosphorylation in THP-1 human monocytic cells; assay: Cellular JAK potency assay, THP-1
JAK3 = JAK3 (Homo sapiens (Human), UniProt P52333); assay: LanthaScreen JAK biochemical assay (JAK3)
[2] = system: IL-13 induced STAT6 phosphorylation in BEAS-2B human lung epithelial cells; assay: AlphaScreen cellular JAK potency assay, BEAS-2B; settings: BEAS-2B cells, IL-13 induced STAT6 phosphorylation
JAK2 = JAK2 (Homo sapiens (Human), UniProt O60674); assay: LanthaScreen JAK biochemical assay (JAK2)
JAK1 = JAK1 (Homo sapiens (Human), UniProt P23458); assay: LanthaScreen JAK biochemical assay (JAK1)
Tyk2 = Tyk2 (Homo sapiens (Human), UniProt P29597); assay: LanthaScreen JAK biochemical assay (Tyk2)
[3] = THP-1 cells, IL-4 induced STAT6 phosphorylation
[4] = IL-4 induced STAT6 phosphorylation, THP-1 cells

Sequence of JAK1 (P23458 whole entry): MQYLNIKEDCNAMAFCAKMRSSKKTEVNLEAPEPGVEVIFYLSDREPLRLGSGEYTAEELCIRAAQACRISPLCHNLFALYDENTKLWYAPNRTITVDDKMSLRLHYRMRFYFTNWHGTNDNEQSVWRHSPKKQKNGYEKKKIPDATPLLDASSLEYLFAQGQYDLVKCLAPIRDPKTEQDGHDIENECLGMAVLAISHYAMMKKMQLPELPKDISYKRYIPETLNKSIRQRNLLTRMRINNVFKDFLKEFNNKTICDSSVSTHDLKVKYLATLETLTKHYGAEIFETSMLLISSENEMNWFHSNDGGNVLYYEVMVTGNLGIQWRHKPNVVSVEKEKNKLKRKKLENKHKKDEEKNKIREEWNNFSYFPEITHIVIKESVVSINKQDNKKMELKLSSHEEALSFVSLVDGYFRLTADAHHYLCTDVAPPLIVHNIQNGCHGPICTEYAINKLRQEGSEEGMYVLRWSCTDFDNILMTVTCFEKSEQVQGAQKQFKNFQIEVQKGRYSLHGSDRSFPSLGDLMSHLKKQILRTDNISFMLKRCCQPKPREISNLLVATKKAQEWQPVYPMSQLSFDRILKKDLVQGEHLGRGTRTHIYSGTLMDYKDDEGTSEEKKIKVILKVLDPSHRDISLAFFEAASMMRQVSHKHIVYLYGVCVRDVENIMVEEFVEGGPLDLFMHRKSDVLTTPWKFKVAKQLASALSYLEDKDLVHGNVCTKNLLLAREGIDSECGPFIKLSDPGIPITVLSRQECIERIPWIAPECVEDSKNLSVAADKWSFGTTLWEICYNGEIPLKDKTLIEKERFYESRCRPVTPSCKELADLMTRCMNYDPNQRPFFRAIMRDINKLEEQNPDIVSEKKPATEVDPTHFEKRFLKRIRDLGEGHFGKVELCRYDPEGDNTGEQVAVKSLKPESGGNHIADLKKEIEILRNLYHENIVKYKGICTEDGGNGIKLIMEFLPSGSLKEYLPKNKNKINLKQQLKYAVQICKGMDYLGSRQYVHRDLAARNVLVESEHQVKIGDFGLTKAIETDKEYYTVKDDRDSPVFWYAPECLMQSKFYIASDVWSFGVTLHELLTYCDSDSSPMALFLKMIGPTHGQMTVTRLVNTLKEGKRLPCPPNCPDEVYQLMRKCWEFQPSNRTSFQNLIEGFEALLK
Sequence of Tyk2 (P29597 whole entry): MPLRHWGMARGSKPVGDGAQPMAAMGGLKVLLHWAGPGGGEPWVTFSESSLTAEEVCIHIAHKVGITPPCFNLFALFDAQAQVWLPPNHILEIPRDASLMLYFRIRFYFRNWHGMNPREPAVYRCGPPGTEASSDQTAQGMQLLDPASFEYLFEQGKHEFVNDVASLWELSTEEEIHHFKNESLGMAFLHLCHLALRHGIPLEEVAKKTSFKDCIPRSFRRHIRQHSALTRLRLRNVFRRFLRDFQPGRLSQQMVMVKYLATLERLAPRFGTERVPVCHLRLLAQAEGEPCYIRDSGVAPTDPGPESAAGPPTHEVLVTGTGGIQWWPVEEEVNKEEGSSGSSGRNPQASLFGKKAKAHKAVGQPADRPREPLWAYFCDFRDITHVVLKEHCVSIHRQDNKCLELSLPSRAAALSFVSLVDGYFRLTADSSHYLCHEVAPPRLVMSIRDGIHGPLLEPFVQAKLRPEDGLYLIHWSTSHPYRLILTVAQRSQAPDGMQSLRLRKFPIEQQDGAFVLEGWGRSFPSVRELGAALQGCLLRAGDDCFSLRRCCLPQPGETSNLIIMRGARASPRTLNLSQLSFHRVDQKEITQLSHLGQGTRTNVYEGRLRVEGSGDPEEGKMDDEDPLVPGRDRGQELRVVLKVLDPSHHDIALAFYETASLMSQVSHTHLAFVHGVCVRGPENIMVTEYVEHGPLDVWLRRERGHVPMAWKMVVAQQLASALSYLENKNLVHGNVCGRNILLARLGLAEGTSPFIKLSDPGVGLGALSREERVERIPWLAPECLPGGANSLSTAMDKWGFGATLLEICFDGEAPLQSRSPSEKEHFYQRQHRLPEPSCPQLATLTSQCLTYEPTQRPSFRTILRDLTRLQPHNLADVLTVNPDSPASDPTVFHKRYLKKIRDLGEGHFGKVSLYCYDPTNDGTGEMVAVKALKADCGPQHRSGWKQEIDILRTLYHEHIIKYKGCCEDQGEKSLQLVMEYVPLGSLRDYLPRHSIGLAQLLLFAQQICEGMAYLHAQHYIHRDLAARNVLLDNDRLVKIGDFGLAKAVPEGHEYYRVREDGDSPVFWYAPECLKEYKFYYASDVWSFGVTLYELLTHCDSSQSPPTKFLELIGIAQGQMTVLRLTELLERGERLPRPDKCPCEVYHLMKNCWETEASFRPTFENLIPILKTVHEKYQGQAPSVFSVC
Sequence of JAK2 (O60674 whole entry): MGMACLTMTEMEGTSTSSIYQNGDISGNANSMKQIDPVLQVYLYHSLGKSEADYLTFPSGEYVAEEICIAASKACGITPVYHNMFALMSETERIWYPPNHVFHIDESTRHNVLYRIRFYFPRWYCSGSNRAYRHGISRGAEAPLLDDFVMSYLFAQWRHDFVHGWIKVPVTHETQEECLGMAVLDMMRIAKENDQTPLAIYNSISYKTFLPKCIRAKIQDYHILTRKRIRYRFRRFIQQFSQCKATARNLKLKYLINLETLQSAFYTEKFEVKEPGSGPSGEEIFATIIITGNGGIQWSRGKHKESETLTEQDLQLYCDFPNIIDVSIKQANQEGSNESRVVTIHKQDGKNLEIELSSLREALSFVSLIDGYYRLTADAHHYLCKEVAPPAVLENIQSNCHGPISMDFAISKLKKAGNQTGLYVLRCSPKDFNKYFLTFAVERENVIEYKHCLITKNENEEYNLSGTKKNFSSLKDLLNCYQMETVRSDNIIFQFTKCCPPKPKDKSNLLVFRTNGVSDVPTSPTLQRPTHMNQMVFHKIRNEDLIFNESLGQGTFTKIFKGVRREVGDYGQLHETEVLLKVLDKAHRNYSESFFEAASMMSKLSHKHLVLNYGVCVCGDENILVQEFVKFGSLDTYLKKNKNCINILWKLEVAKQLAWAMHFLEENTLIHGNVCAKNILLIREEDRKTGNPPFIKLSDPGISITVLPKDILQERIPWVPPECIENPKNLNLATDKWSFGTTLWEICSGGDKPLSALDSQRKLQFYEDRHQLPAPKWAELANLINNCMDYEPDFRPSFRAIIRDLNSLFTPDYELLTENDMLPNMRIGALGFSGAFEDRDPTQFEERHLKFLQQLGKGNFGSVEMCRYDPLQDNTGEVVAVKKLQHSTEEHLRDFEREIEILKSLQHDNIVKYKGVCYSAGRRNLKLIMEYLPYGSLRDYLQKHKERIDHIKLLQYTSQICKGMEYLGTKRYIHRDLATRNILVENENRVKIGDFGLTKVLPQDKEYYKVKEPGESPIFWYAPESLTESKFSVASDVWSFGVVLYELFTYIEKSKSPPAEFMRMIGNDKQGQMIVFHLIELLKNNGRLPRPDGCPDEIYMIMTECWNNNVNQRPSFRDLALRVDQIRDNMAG

| Structure (SMILES) | THP-1 IL4 pIC50 [1, 3] | JAK 3 (pKi) (JAK3) | BEAS2B pIC50 [2] | JAK 2 (pKi) (JAK2) | JAK 1 (pKi) (JAK1) | Tyk 2 (pKi) (Tyk2) | THP-1 IL4 pIC50 [1, 4] |
| --- | --- | --- | --- | --- | --- | --- | --- |
| Cc1cc(Nc2nc(N[C@@H]3C[C@H]4CCC[C@@H](C3)N4Cc3ccncc3)c3cccnc3c2F)n[nH]1 [Example 8-14] | A (A represents a pEC50 value≥7.5 (EC50≤32 nM)) | C (C represents a pKi value between 7 and 9 (Ki between 100 nM and 1 nM)) | A (A represents a pEC50 value≥7.5 (EC50≤32 nM)) | B (B represents a pKi value between 9 and 10 (Ki between 1 nM and 0.1 nM)) | B (B represents a pKi value between 9 and 10 (Ki between 1 nM and 0.1 nM)) |  |  |
| COc1cnc2cc(Nc3cc(C)[nH]n3)nc(N[C@@H]3C[C@H]4CC[C@@H](C3)N4C(=O)OCC(C)C)c2c1 [Example 6-25] | B (B represents a pEC50 value between 6.7 and 7.5 (EC50 between 200 nM and 32 nM)) | C (C represents a pKi value between 7 and 9 (Ki between 100 nM and 1 nM)) | A (A represents a pEC50 value≥7.5 (EC50≤32 nM)) |  |  |  |  |
| Cc1cnc2cc(Nc3cc(C)[nH]n3)nc(N[C@@H]3C[C@H]4CCC[C@@H](C3)N4CCC#N)c2c1 [Example 6-6] | A (A represents a pEC50 value≥7.5 (EC50≤32 nM)) | B (B represents a pKi value between 9 and 10 (Ki between 1 nM and 0.1 nM)) | A (A represents a pEC50 value≥7.5 (EC50≤32 nM)) | A (A represents a pKi value≥10 (Ki≤0.1 nM)) |  |  |  |
| Cc1cc(Nc2nc(NC3CC4CCCC(C3)N4C(=O)C(C)O)c3cccnc3c2F)n[nH]1 (stereo not drawn) [Example 8-16] | B (B represents a pEC50 value between 6.7 and 7.5 (EC50 between 200 nM and 32 nM)) | C (C represents a pKi value between 7 and 9 (Ki between 100 nM and 1 nM)) |  | B (B represents a pKi value between 9 and 10 (Ki between 1 nM and 0.1 nM)) | B (B represents a pKi value between 9 and 10 (Ki between 1 nM and 0.1 nM)) | C (C represents a pKi value between 7 and 9 (Ki between 100 nM and 1 nM)) |  |
| Cc1cc(Nc2cc3nc(CN4CCC(F)(F)CC4)ccc3c(N[C@@H]3C[C@H]4CC[C@@H](C3)N4CC(C)C)n2)n[nH]1 [Example 5-34] |  | C (C represents a pKi value between 7 and 9 (Ki between 100 nM and 1 nM)) |  | B (B represents a pKi value between 9 and 10 (Ki between 1 nM and 0.1 nM)) | B (B represents a pKi value between 9 and 10 (Ki between 1 nM and 0.1 nM)) | B (B represents a pKi value between 9 and 10 (Ki between 1 nM and 0.1 nM)) | B (B represents a pEC50 value between 6.7 and 7.5 (EC50 between 200 nM and 32 nM)) |
| Cc1cnc2c(F)c(Nc3cc(C)[nH]n3)nc(N[C@@H]3C[C@H]4CCC[C@@H](C3)N4S(=O)(=O)c3cccnc3)c2c1 [Example 8-24] | B (B represents a pEC50 value between 6.7 and 7.5 (EC50 between 200 nM and 32 nM)) | C (C represents a pKi value between 7 and 9 (Ki between 100 nM and 1 nM)) | B (B represents a pEC50 value between 6.7 and 7.5 (EC50 between 200 nM and 32 nM)) | B (B represents a pKi value between 9 and 10 (Ki between 1 nM and 0.1 nM)) | B (B represents a pKi value between 9 and 10 (Ki between 1 nM and 0.1 nM)) |  |  |
| Cc1cnc2cc(Nc3cc(C)[nH]n3)nc(N[C@@H]3C[C@H]4CC[C@@H](C3)N4C(=O)OCC(C)C)c2c1 [Example 6-3] | B (B represents a pEC50 value between 6.7 and 7.5 (EC50 between 200 nM and 32 nM)) | C (C represents a pKi value between 7 and 9 (Ki between 100 nM and 1 nM)) | B (B represents a pEC50 value between 6.7 and 7.5 (EC50 between 200 nM and 32 nM)) | B (B represents a pKi value between 9 and 10 (Ki between 1 nM and 0.1 nM)) | B (B represents a pKi value between 9 and 10 (Ki between 1 nM and 0.1 nM)) |  |  |
| CCC(C)C(=O)N1C2CCC1CC(Nc1nc(Nc3cc(C)[nH]n3)cc3ncc(C(=O)OC)cc13)C2 (stereo not drawn) [Example 6-38] | B (B represents a pEC50 value between 6.7 and 7.5 (EC50 between 200 nM and 32 nM)) | C (C represents a pKi value between 7 and 9 (Ki between 100 nM and 1 nM)) |  | B (B represents a pKi value between 9 and 10 (Ki between 1 nM and 0.1 nM)) | B (B represents a pKi value between 9 and 10 (Ki between 1 nM and 0.1 nM)) | C (C represents a pKi value between 7 and 9 (Ki between 100 nM and 1 nM)) |  |
| Cc1cc(Nc2cc3nc(CS(C)(=O)=O)ccc3c(N[C@@H]3C[C@H]4CC[C@@H](C3)N4CCC(F)(F)F)n2)n[nH]1 [Example 5-43] |  | C (C represents a pKi value between 7 and 9 (Ki between 100 nM and 1 nM)) |  | B (B represents a pKi value between 9 and 10 (Ki between 1 nM and 0.1 nM)) | B (B represents a pKi value between 9 and 10 (Ki between 1 nM and 0.1 nM)) | B (B represents a pKi value between 9 and 10 (Ki between 1 nM and 0.1 nM)) | B (B represents a pEC50 value between 6.7 and 7.5 (EC50 between 200 nM and 32 nM)) |
